In this experiment the test system is AKT-mTOR-p70S6K pathway. The experiment in a line: Downstream signaling in macrophages after drug washout and MCSF exposure (Western blot). In kind it is cell-based. To be noted: 4 hours drug, washout 7 h or 48 h, MCSF 2 h.

SMILES strings stand for the structures.

In the case of `FC(F)(F)c1ccc(CNc2ccc(Cc3c[nH]c4ncc(Cl)cc34)cn2)cn1` [PLX3397], the AKT-mTOR-p70S6K downstream signaling entry was “not by BLZ945 and PLX3397”.

Source of the values: patent US10736968B2, “Cellular signalling inhibitors, their formulations and methods thereof” (INVICTUS ONCOLOGY PVT. LTD., priority 2016, dated 2020).
